This is an account of results in US20240002395A1, “COMPOUNDS AND THEIR USE FOR TREATING NEUROPATHIC PAIN” (The Johns Hopkins University, priority 2020, published 2024).

Molecules are shown by their SMILES. A value given as a limit tells only on which side of the number the result lay.

Series [1] in a line: Metabolic stability in human liver microsomes. It counts as in vitro ADME. As to the method: [The procedure below names another species; the source lists this species under the same test.] (§1) The metabolic stability was evaluated using mouse liver microsomes. For the cytochrome P450 (CYP)-mediated metabolism, the reaction was carried out with 100 mM potassium phosphate buffer, pH 7.4, in the presence of NADPH regenerating system (1.3 mM NADPH, 3.3 mM glucose 6-phosphate, 3.3 mM MgCl2, 0.4 U/mL glucose-6-phosphate dehydrogenase, 50 μM sodium citrate). Reactions, in triplicate, were initiated by addition of the liver microsomes to the incubation mixture (compound final concentration was 5 μM; 0.5 mg/mL microsomes). After 60 min of incubation, aliquots of the mixture were removed and the reaction quenched by addition of three times the volume of ice-cold acetonitrile spiked with the internal standard. Compound disappearance was monitored over time using a liquid chromatography and tandem mass spectrometry (LC/MS/MS) method.

Series [2] is described as follows: Metabolic stability in mouse liver microsomes. It counts as in vitro ADME. As to conditions: mouse liver microsomes 0.5 mg/mL, NADPH, compound 5 μM, 60 min. As to the method:
as §1
(In general: Liver microsomes are vesicles of endoplasmic reticulum, rich in cytochrome P450 enzymes.)

The target of series [3] is T1, human MrgprX1 (Homo sapiens, UniProt Q96LB2).
T1 construct: expressed in transfected cells
The series is described as follows: MrgprX1 positive allosteric modulator (PAM) calcium FLIPR assay in HEK293 cells. As to conditions: PAM activity in presence of EC20 concentration of BAM8-22; HEK293 cells stably transfected with human MrgprX1. It counts as cell-based. How it is done: HEK293 cells stably transfected with human MrgprX1 were plated onto poly-D-lysine-coated, black-walled, 96-well plates at a seeding density of 12,000 cells/well and grown for two days. On the day of the experiment, cells were incubated with Fluo-4 AM 2 μM, pluronic acid 0.04% and Trypan Red 1% in HBSS (pH 7.4, 100 μL) for 1 h at 37° C. For each different passage of cells, a BAM8-22 dose response was first conducted and the BAM8-22 EC20 determined. Test compounds were then dissolved and serially diluted in DMSO, further diluted with Trypan Red (1%)-containing HBSS (50 μL) and added to cells (0.33% DMSO concentration by volume) to first monitor for agonist activity. After 2.5 min, BAM8-22 at 4-fold EC20 (50 μL) was added to cells (0.25% DMSO concentration by volume) and the cells imaged on the FLIPR for an additional 2 minutes to monitor the test compounds for PAM activity. Finally, data were normalized to fluorescence signals obtained from 250 nM of BAM8-22 (maximum) and BAM8-22 at its EC20 concentration (minimum). EC50 of a test compound was defined as the concentration required to provoke a response halfway between the minimum and maximum response in the presence of EC20 concentration of BAM8-22.

T1 sequence (Q96LB2 whole entry): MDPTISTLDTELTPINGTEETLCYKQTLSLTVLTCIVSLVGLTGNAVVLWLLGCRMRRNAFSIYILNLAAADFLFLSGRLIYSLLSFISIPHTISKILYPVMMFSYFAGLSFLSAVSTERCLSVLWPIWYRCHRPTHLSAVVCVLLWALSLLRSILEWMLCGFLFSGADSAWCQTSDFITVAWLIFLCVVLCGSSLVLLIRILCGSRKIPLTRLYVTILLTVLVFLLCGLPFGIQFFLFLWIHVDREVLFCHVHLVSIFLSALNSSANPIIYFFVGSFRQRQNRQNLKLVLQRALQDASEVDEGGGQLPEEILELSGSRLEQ

With `CC(C)(C)c1sc2ncnc(Oc3c(F)cccc3OC(F)(F)F)c2c1-c1ccc(Cl)cc1` [Compound 7ao, 6-tert-butyl-5-(4-chlorophenyl)-4-(2-fluoro-6-(trifluoromethoxy)phenoxy)thieno[2,3-d]pyrimidine], the “% remaining after 1-h incubation, Human” value in series [1] was above 95%. Besides, the “% remaining after 1-h incubation, Mouse” value in series [2] is reported as above 95%. For the same molecule, the EC50 in series [3] is 10 nM.

Take `Cc1ccccc1Oc1ncnc2sc(C)c(C)c12` [Compound 7az, 5,6-dimethyl-4-(o-tolyloxy)thieno[2,3-d]pyrimidine]: the melting point is 107 °C. Moreover, in series [2], the “% remaining after 1-h incubation, Mouse” value was below 5%. Moreover, the EC50 in series [3] was 500 nM.

With `CC(C)(C)c1sc2ncnc(Oc3c(F)cccc3OC(F)(F)F)c2c1N1CCCC1` [Compound 7bf, 6-(tert-butyl)-4-(2-fluoro-6-(trifluoromethoxy)phenoxy)-5-(pyrrolidin-1-yl)thieno[2,3-d]pyrimidine], the melting point is 115 °C. Besides, the EC50 in series [3] was 30 nM.

On to `CC(C)(C)c1sc2ncnc(Oc3c(F)cccc3OC(F)(F)F)c2c1N1CCCCC1` [Compound 7bh, 6-(tert-butyl)-4-(2-fluoro-6-(trifluoromethoxy)phenoxy)-5-(piperidin-1-yl)thieno[2,3-d]pyrimidine], for which the melting point stood at 133 °C. Moreover, the EC50 in series [3] was 40 nM.

In turn, `CC(C)(C)c1sc2ncnc(Oc3c(F)cccc3F)c2c1N1CCOCC1` [Compound 7bi, 4-(6-(tert-butyl)-4-(2,6-difluorophenoxy)thieno[2,3-d]pyrimidin-5-yl)morpholine] yielded a melting point of 173 °C. The EC50 in series [3] amounted to 40 nM.

The molecule `CCN(CC)c1c(C(C)(C)C)sc2ncnc(Oc3c(F)cccc3OC(F)(F)F)c12` [Compound 7bj, 6-(tert-butyl)-N,N-diethyl-4-(2-fluoro-6-(trifluoromethoxy)phenoxy)thieno[2,3-d]pyrimidin-5-amine] returned a melting point of 72 °C. Besides, in series [3], the EC50 is 70 nM.

In the case of `CC(C)(C)c1oc2ncnc(Oc3c(F)cccc3OC(F)(F)F)c2c1C(=O)N1CCCCC1` [Compound 7bk, (6-(tert-butyl)-4-(2-fluoro-6-(trifluoromethoxy)phenoxy)furo[2,3-d]pyrimidin-5-yl)(piperidin-1-yl)methanone], the melting point was in the range of 159 to 161 °C. Moreover, the EC50 in series [3] is 100 nM.

`CC(C)(C)c1sc2ncnc(Oc3c(Cl)cccc3OC(F)(F)F)c2c1-c1ccc(Cl)c(Cl)c1` [Compound 7c, 6-tert-butyl-4-(2-chloro-6-(trifluoromethoxy)phenoxy)-5-(3,4-dichlorophenyl)thieno[2,3-d]pyrimidine]: the melting point came out at 66 °C. The EC50 in series [3] is 300 nM.

Molecule `CC(C)(C)c1sc2ncnc(Oc3cccc(OC(F)(F)F)c3)c2c1-c1ccc(Cl)c(Cl)c1` [Compound 7d, 6-tert-butyl-5-(3,4-dichlorophenyl)-4-(3-(trifluoromethoxy)phenoxy)thieno[2,3-d]pyrimidine] yielded a melting point of 121 °C. Further, the EC50 in series [3] is above 10000 nM.

`CC(C)(C)c1sc2ncnc(Oc3ccc(OC(F)(F)F)cc3)c2c1-c1ccc(Cl)c(Cl)c1` [Compound 7e, 6-tert-butyl-5-(3,4-dichlorophenyl)-4-(4-(trifluoromethoxy)phenoxy)thieno[2,3-d]pyrimidine]: the melting point turned out to be 103 °C. In addition, in series [3], the EC50 was above 100000 nM.

`CC(C)(C)c1sc2ncnc(Oc3cccnc3F)c2c1-c1ccc(Cl)c(Cl)c1` [Compound 7g, 6-tert-butyl-5-(3,4-dichlorophenyl)-4-(2-fluoropyridin-3-yloxy)thieno[2,3-d]pyrimidine] displayed a melting point of 164 °C. Also, the EC50 in series [3] turned out to be 1000 nM.

In turn, `CC(C)(C)c1sc2ncnc(Oc3cccnc3OC(F)(F)F)c2c1-c1ccc(Cl)c(Cl)c1` [Compound 7h, 6-tert-butyl-5-(3,4-dichlorophenyl)-4-(2-(trifluoromethoxy)pyridin-3-yloxy)thieno[2,3-d]pyrimidine] came in with a melting point of 117 °C. Further, the EC50 in series [3] stood at 4000 nM.

Molecule `CC(C)(C)c1sc2ncnc(Oc3cccnc3N)c2c1-c1ccc(Cl)c(Cl)c1` [Compound 7j, 3-(6-tert-butyl-5-(3,4-dichlorophenyl)thieno[2,3-d]pyrimidin-4-yloxy)pyridin-2-amine] yielded a melting point of 207 °C. The EC50 in series [3] came to 30000 nM.

The molecule `CC(C)(C)c1sc2ncnc(Oc3ccnnc3)c2c1-c1ccc(Cl)c(Cl)c1` [Compound 7k, 6-tert-butyl-5-(3,4-dichlorophenyl)-4-(pyridazin-4-yloxy)thieno[2,3-d]pyrimidine] gave a melting point of 186 °C. In series [3], the EC50 was above 100000 nM.

On to `CC(C)(C)c1sc2ncnc(Oc3ccccc3)c2c1-c1ccc(Cl)c(Cl)c1` [Compound 7l, 6-tert-butyl-5-(3,4-dichlorophenyl)-4-phenoxythieno[2,3-d]pyrimidine], for which the melting point amounted to 148 °C. In addition, the EC50 in series [3] stood at 600 nM.

For the molecule `CC(C)(C)c1sc2ncnc(Oc3ccccc3F)c2c1-c1ccc(Cl)c(Cl)c1` [Compound 7m, 6-tert-butyl-5-(3,4-dichlorophenyl)-4-(2-fluorophenoxy)thieno[2,3-d]pyrimidine], the melting point amounted to 163 °C. Besides, in series [3], the EC50 was 100 nM.

`CC(C)(C)c1sc2ncnc(Oc3cccc(F)c3)c2c1-c1ccc(Cl)c(Cl)c1` [Compound 7o, 6-tert-butyl-5-(3,4-dichlorophenyl)-4-(3-fluorophenoxy)thieno[2,3-d]pyrimidine] returned a melting point of 144 °C. Besides, in series [3], the EC50 is above 100000 nM.

`CC(C)(C)c1sc2ncnc(Oc3ccc(F)cc3)c2c1-c1ccc(Cl)c(Cl)c1` [Compound 7p, 6-tert-butyl-5-(3,4-dichlorophenyl)-4-(4-fluorophenoxy)thieno[2,3-d]pyrimidine]: the melting point was 179 °C. The EC50 in series [3] is 2000 nM.

Molecule `COc1ccccc1Oc1ncnc2sc(C(C)(C)C)c(-c3ccc(Cl)c(Cl)c3)c12` [Compound 7q, 6-tert-butyl-5-(3,4-dichlorophenyl)-4-(2-methoxyphenoxy)thieno[2,3-d]pyrimidine] yielded a melting point of 136 °C. Besides, the EC50 in series [3] stood at 700 nM.

Take `CCOc1ccccc1Oc1ncnc2sc(C(C)(C)C)c(-c3ccc(Cl)c(Cl)c3)c12` [Compound 7r, 6-tert-butyl-5-(3,4-dichlorophenyl)-4-(2-ethoxyphenoxy)thieno[2,3-d]pyrimidine]: the melting point was 119 °C. In addition, the EC50 in series [3] came out at 1000 nM.

`CC(C)(C)c1sc2ncnc(Oc3ccccc3OCC(F)(F)F)c2c1-c1ccc(Cl)c(Cl)c1` [Compound 7s, 6-tert-butyl-5-(3,4-dichlorophenyl)-4-(2-(2,2,2-trifluoroethoxy)phenoxy)thieno[2,3-d]pyrimidine]: the melting point is 136 °C. For the same molecule, the EC50 in series [3] was found to be 1000 nM.

Regarding `Cc1ccccc1Oc1ncnc2sc(C(C)(C)C)c(-c3ccc(Cl)c(Cl)c3)c12` [Compound 7t, 6-tert-butyl-5-(3,4-dichlorophenyl)-4-(o-tolyloxy)thieno[2,3-d]pyrimidine], the melting point is 151 °C. Also, the EC50 in series [3] amounted to 400 nM.

The molecule `CC(=O)c1ccccc1Oc1ncnc2sc(C(C)(C)C)c(-c3ccc(Cl)c(Cl)c3)c12` [Compound 7u, 1-(2-(6-tert-butyl-5-(3,4-dichlorophenyl)thieno[2,3-d]pyrimidin-4-yloxy)phenyl)ethanone] displayed a melting point of 60 °C. In addition, the EC50 in series [3] amounted to 3000 nM.

Turning to `CC(C)Oc1ncnc2sc(C(C)(C)C)c(-c3ccc(Cl)c(Cl)c3)c12` [Compound 7w, 6-tert-butyl-5-(3,4-dichlorophenyl)-4-isopropoxythieno[2,3-d]pyrimidine], the melting point was 165 °C. The EC50 in series [3] was above 10000 nM.

`CC(C)(C)c1sc2ncnc(OC3CC3)c2c1-c1ccc(Cl)c(Cl)c1` [Compound 7x, 6-tert-butyl-4-cyclopropoxy-5-(3,4-dichlorophenyl)thieno[2,3-d]pyrimidine] registered a melting point of 172 °C. In addition, the 50% effective concentration (EC50) in series [3] is above 10000 nM.

In the case of `CC(C)(C)c1sc2ncnc(OC3CCC3)c2c1-c1ccc(Cl)c(Cl)c1` [Compound 7y, 6-tert-butyl-4-cyclobutoxy-5-(3,4-dichlorophenyl)thieno[2,3-d]pyrimidine], the melting point came out at 146 °C. In addition, in series [3], the 50% effective concentration (EC50) turned out to be 7000 nM.

`CC(C)(C)c1sc2ncnc(OC3CCCC3)c2c1-c1ccc(Cl)c(Cl)c1` [Compound 7z, 6-tert-butyl-4-(cyclopentyloxy)-5-(3,4-dichlorophenyl)thieno[2,3-d]pyrimidine] displayed a melting point of 112 °C. Also, in series [3], the EC50 stood at 6000 nM.

The term EC50 denotes the midpoint of the concentration-response curve. Usually melting point stands for the temperature of the solid-liquid transition.
